Our source for the IC50 values is patent US8846928B2 (Portola Pharmaceuticals, Inc., priority 2010, dated 2014).

Structures are written as SMILES.

The target of the assay is T1, full length active recombinant SYK enzyme (Homo sapiens, UniProt P43405).
T1 construct: full length active recombinant SYK enzyme (Millipore, Calif.); purchased Millipore
Nature of the assay: Inhibition of Syk tyrosine phosphorylation activity (LANCE TR-FRET kinase assay). The assay is classed as biochemical. (In general: Time-resolved FRET reads energy transfer from a long-lived donor to a nearby acceptor.)
`COc1cc(F)cc(Nc2nc(N[C@@H]3CCCC[C@@H]3N)c(F)cc2C(N)=O)c1` [Example 326, 6-((1R,2S)-2-aminocyclohexylamino)-5-fluoro-2-(3-fluoro-5-methoxyphenylamino)nicotinamide]: the IC50 (commonly the point on the concentration scale where inhibition reaches its midpoint) is less than 1 nM.
The value for `NC(=O)c1cc(F)c(N[C@@H]2CCCC(F)(F)[C@@H]2N)nc1Nc1cccc2ncccc12` [Example 327, 6-((1R,2R)-2-amino-3,3-difluorocyclohexylamino)-5-fluoro-2-(quinolin-5-ylamino)nicotinamide] was 100 to 1000 nM; that for `NC(=O)c1cc(F)c(N[C@@H]2CCCC(F)(F)[C@@H]2N)nc1Nc1ccc2ncsc2c1` [Example 328, 6-((1R,2R)-2-amino-3,3-difluorocyclohexylamino)-2-(benzo[d]thiazol-6-ylamino)-5-fluoronicotinamide] was 10 to 100 nM.
With `NC(=O)c1cc(F)c(N[C@@H]2CCCC(F)(F)[C@@H]2N)nc1Nc1cccc2ncsc12` [Example 329, 6-((1R,2R)-2-amino-3,3-difluorocyclohexylamino)-2-(benzo[d]thiazol-7-ylamino)-5-fluoronicotinamide] the figure was 100 to 1000 nM; with `Cn1ccc2c(Nc3nc(N[C@@H]4CCCC(F)(F)[C@@H]4N)c(F)cc3C(N)=O)cccc21` [Example 330, 6-((1R,2R)-2-amino-3,3-difluorocyclohexylamino)-5-fluoro-2-(1-methyl-1H-indol-4-ylamino)nicotinamide], 10 to 100 nM; with `Cn1ccc2cc(Nc3nc(N[C@@H]4CCCC(F)(F)[C@@H]4N)c(F)cc3C(N)=O)ccc21` [Example 331, 6-((1R,2R)-2-amino-3,3-difluorocyclohexylamino)-5-fluoro-2-(1-methyl-1H-indol-5-ylamino)nicotinamide], 10 to 100 nM.
In the case of `Cc1cncc(Nc2nc(N[C@@H]3CCCC(F)(F)[C@@H]3N)c(F)cc2C(N)=O)c1` [Example 332, 6-((1R,2R)-2-amino-3,3-difluorocyclohexylamino)-5-fluoro-2-(5-methylpyridin-3-ylamino)nicotinamide], the IC50 lay in the range of 100 to 1000 nM.
`Cc1cc(Nc2nc(N[C@@H]3CCCC(F)(F)[C@@H]3N)c(F)cc2C(N)=O)sn1` [Example 333, 6-((1R,2R)-2-amino-3,3-difluorocyclohexylamino)-5-fluoro-2-(3-methylisothiazol-5-ylamino)nicotinamide]: the half-inhibitory concentration (IC50) lay within 100 to 1000 nM.
With `Cc1ccc(Nc2nc(N[C@@H]3CCCC(F)(F)[C@@H]3N)c(F)cc2C(N)=O)cc1` [Example 334, 6-((1R,2R)-2-amino-3,3-difluorocyclohexylamino)-5-fluoro-2-(p-tolylamino)nicotinamide], the IC50 was 100 to 1000 nM.
With `Cc1cccc(Nc2nc(N[C@@H]3CCCC(F)(F)[C@@H]3N)c(F)cc2C(N)=O)c1` [Example 335, 6-((1R,2R)-2-amino-3,3-difluorocyclohexylamino)-5-fluoro-2-(m-tolylamino)nicotinamide] the figure was 10 to 100 nM; with `NC(=O)c1cc(F)c(N[C@@H]2CCCC(F)(F)[C@@H]2N)nc1Nc1cccc(Cl)c1` [Example 336, 6-((1R,2R)-2-amino-3,3-difluorocyclohexylamino)-2-(3-chlorophenylamino)-5-fluoronicotinamide], 100 to 1000 nM.
The value for `NC(=O)c1cc(F)c(N[C@@H]2CCCC(F)(F)[C@@H]2N)nc1Nc1cc(F)cc(F)c1` [Example 337, 6-((1R,2R)-2-amino-3,3-difluorocyclohexylamino)-2-(3,5-difluorophenylamino)-5-fluoronicotinamide] was 100 to 1000 nM.
With `COc1cc(F)cc(Nc2nc(N[C@@H]3CCCC(F)(F)[C@@H]3N)c(F)cc2C(N)=O)c1` [Example 338, 6-((1R,2R)-2-amino-3,3-difluorocyclohexylamino)-5-fluoro-2-(3-fluoro-5-methoxyphenylamino)nicotinamide] the figure was 100 to 1000 nM; with `Cc1cc(F)cc(Nc2nc(N[C@@H]3CCCC(F)(F)[C@@H]3N)c(F)cc2C(N)=O)c1` [Example 339, 6-((1R,2R)-2-amino-3,3-difluorocyclohexylamino)-5-fluoro-2-(3-fluoro-5-methylphenylamino)nicotinamide], 10 to 100 nM; with `NC(=O)c1cc(F)c(N[C@H]2[C@@H](N)CCCC2(F)F)nc1Nc1cccc(-n2nccn2)c1` [Example 340], 1 to 10 nM.
On to `NC(=O)c1cc(F)c(N[C@H]2[C@@H](N)CCCC2(F)F)nc1Nc1cccc(-n2cccn2)c1` [Example 341, 2-(3-(1H-pyrazol-1-yl)phenylamino)-6-((1S,6S)-6-amino-2,2-difluorocyclohexylamino)-5-fluoronicotinamide], for which the IC50 lay in the range of 1 to 10 nM.
Regarding `NC(=O)c1cc(F)c(N[C@H]2[C@@H](N)CCCC2(F)F)nc1Nc1cccc(-c2ncccn2)c1` [Example 342, 6-((1S,6S)-6-amino-2,2-difluorocyclohexylamino)-5-fluoro-2-(3-(pyrimidin-2-yl)phenylamino)nicotinamide], the IC50 was in the range of 10 to 100 nM.
With `NC(=O)c1cc(F)c(N[C@H]2[C@@H](N)CCCC2(F)F)nc1Nc1ccc2ncccc2c1` [Example 343, 6-((1S,6S)-6-amino-2,2-difluorocyclohexylamino)-5-fluoro-2-(quinolin-6-ylamino)nicotinamide] the figure was 1 to 10 nM.
The value for `NC(=O)c1cc(F)c(N[C@H]2[C@@H](N)CCCC2(F)F)nc1Nc1cnc2ccccc2c1` [Example 344, 6-((1S,6S)-6-amino-2,2-difluorocyclohexylamino)-5-fluoro-2-(quinolin-3-ylamino)nicotinamide] was 1 to 10 nM; that for `NC(=O)c1cc(F)c(N[C@H]2[C@@H](N)CCCC2(F)F)nc1Nc1ccc2ncsc2c1` [Example 345, 6-((1S,6S)-6-amino-2,2-difluorocyclohexylamino)-2-(benzo[d]thiazol-6-ylamino)-5-fluoronicotinamide] was 1 to 10 nM.
As to `Cc1ccc(Nc2nc(N[C@H]3[C@@H](N)CCCC3(F)F)c(F)cc2C(N)=O)cc1` [Example 346], the IC50 lay within 10 to 100 nM.
For `NC(=O)c1cc(F)c(N[C@H]2[C@@H](N)CCCC2(F)F)nc1Nc1cccnc1` [Example 347, 6-((1S,6S)-6-amino-2,2-difluorocyclohexylamino)-5-fluoro-2-(pyridin-3-ylamino)nicotinamide], the IC50 is 10 to 100 nM.
`NC(=O)c1cc(F)c(N[C@H]2[C@@H](N)CCCC2(F)F)nc1Nc1cncc(F)c1` [Example 348]: the IC50 fell in the range of 10 to 100 nM.
With `Cc1ccc(Nc2nc(N[C@@H]3CCOC[C@@H]3N)c(F)cc2C(N)=O)cc1` [Example 349, 6-((3R,4R)-3-aminotetrahydro-2H-pyran-4-ylamino)-5-fluoro-2-(p-tolylamino)nicotinamide] the figure was 10 to 100 nM.
Regarding `NC(=O)c1cc(F)c(N[C@@H]2CCNC2)nc1Nc1ccc2ncccc2c1` [Example 351, (R)-5-fluoro-6-(pyrrolidin-3-ylamino)-2-(quinolin-6-ylamino)nicotinamide], the 50% inhibitory concentration (IC50) lay within 10 to 100 nM.
The value for `CC[C@H](Nc1nc(Nc2cccc(C)c2)c(C(N)=O)cc1F)C1(N)CC1` [Example 369, (S)-6-(1-(1-aminocyclopropyl)propylamino)-5-fluoro-2-(m-tolylamino)nicotinamide] was 100 to 1000 nM; that for `CC[C@H](Nc1nc(Nc2ccc(C)cc2)c(C(N)=O)cc1F)C1(N)CC1` [Example 370, (S)-6-(1-(1-aminocyclopropyl)propylamino)-5-fluoro-2-(p-tolylamino)nicotinamide] was more than 1000 nM.
With `CC[C@H](Nc1nc(Nc2cccnc2)c(C(N)=O)cc1F)C1(N)CC1` [Example 371, (S)-6-(1-(1-aminocyclopropyl)propylamino)-5-fluoro-2-(pyridin-3-ylamino)nicotinamide] the figure was more than 1000 nM; with `CC[C@@H](Nc1nc(Nc2cncc(F)c2)c(C(N)=O)cc1F)C1(N)CC1` [Example 373, (R)-6-(1-(1-aminocyclopropyl)propylamino)-5-fluoro-2-(5-fluoropyridin-3-ylamino)nicotinamide], 10 to 100 nM; with `NC(=O)c1cc(F)c(NC2(C(N)=O)CCCC2)nc1Nc1cnc2ccccc2c1` [Example 376, 6-(1-carbamoylcyclopentylamino)-5-fluoro-2-(quinolin-3-ylamino)nicotinamide], 100 to 1000 nM.
With `NC(=O)c1cc(F)c(NC(CC(F)(F)F)C(N)=O)nc1Nc1cnc2ccccc2c1` (stereo not shown) [Example 377, 6-(1-amino-4,4,4-trifluoro-1-oxobutan-2-ylamino)-5-fluoro-2-(quinolin-3-ylamino)nicotinamide] the figure was 10 to 100 nM; with `NC(=O)c1cc(F)c(NC2(C(N)=O)CCCCC2)nc1Nc1cnc2ccccc2c1` [Example 378, 6-(1-carbamoylcyclohexylamino)-5-fluoro-2-(quinolin-3-ylamino)nicotinamide], more than 1000 nM.
In the case of `NC(=O)c1cc(F)c(NC2(C(N)=O)CCC2)nc1Nc1cnc2ccccc2c1` [Example 379, 6-(1-carbamoylcyclobutylamino)-5-fluoro-2-(quinolin-3-ylamino)nicotinamide], the 50% inhibitory concentration (IC50) is 100 to 1000 nM.
With `Cc1cccc(Nc2nc(NC[C@@H](N)CC(F)F)c(F)cc2C(N)=O)c1` [Example 380, (S)-2-(m-toluidino)-6-(2-amino-4,4-difluorobutylamino)-5-fluoronicotinamide] the figure was 10 to 100 nM; with `Cc1ccc(Nc2nc(NC[C@@H](N)CC(F)F)c(F)cc2C(N)=O)cc1` [Example 381, (S)-2-(p-toluidino)-6-(2-amino-4,4-difluorobutylamino)-5-fluoronicotinamide], 100 to 1000 nM; with `NC(=O)c1cc(F)c(NC[C@@H](N)CC(F)F)nc1Nc1cncc(F)c1` [Example 382, (S)-6-(2-amino-4,4-difluorobutylamino)-5-fluoro-2-(5-fluoropyridin-3-ylamino)nicotinamide], 100 to 1000 nM.
As to `NC(=O)c1ccc(N[C@@H]2CCNC2)nc1Nc1ccc2ncccc2c1` [Example 383, (R)-6-(pyrrolidin-3-ylamino)-2-(quinolin-6-ylamino)nicotinamide], the IC50 is more than 1000 nM.
